These results are taken from paper PMC2112011 (The Journal of Cell Biology, 1982).

This test relates to C3H cells. Briefly: Rodlet formation. In kind it is cell-based, mouse. The note with it: 10-20 μM, 1 h.

Take `CC1=C[C@@H]2/C=C(\C)CC[C@H](O)[C@H](O)/C=C/C(=O)[C@]23C(=O)N[C@@H](CC(C)C)[C@@H]3[C@@H]1C` [AsD, Aspochalasin D]: the “Number of rodlets within a single cell” value is given as 1-127.
